Assay [1] relates to MRSA clinical isolate No. 11. The experiment in a line: MIC, broth microdilution (Example 2, Table 6). The class given is cell-based, Staphylococcus aureus. Background: In broth dilution the organism is exposed to a series of concentrations in liquid medium.
The test system of assay [2] is MRSA clinical isolate No. 8. The experiment in a line: MIC, broth microdilution (Example 2, Table 6). The format is cell-based, Staphylococcus aureus.
For assay [3], the system named is MRSA clinical isolate No. 12. The experiment in a line: MIC, broth microdilution (Example 2, Table 6). The format is cell-based, Staphylococcus aureus.
Assay [4] relates to MRSA clinical isolate No. 6. In words: MIC, broth microdilution (Example 2, Table 6). The format is cell-based, Staphylococcus aureus.
A further assay deals with MSSA ATCC25923. The experiment in a line: MIC, broth microdilution (Example 2, Table 6). The format is cell-based, Staphylococcus aureus.
Assay [5] relates to MSSA clinical isolate No. 1. In words: MIC, broth microdilution (Example 2, Table 6). The format is cell-based, Staphylococcus aureus.
For assay [6], the system named is Staphylococcus epidermis ATCC14990. The experiment in a line: Antibacterial spectrum MIC (Table 7). The class given is cell-based. Particulars: for MIC: Staphylococcus epidermis ATCC14990. On the procedure: (§1) Methicillin-susceptible Staphylococcus aureus (MSSA) NCTC8325 and methicillin-resistant Staphylococcus aureus (MRSA) ATCC43300 were used as bacteria. The bacteria of each type were cultured using Mueller-Hinton Broth (MH-broth, Difco) as a medium. Then, the minimum inhibitory concentration (MIC) of each of the EGCG derivatives was measured by a broth microdilution method in accordance with the Clinical and Laboratory Standards Institute (CLSI) guidelines (hereinafter the same).
(§2) First, each of the EGCG derivatives was dissolved in 100% dimethyl sulfoxide (DMSO, Wako Pure Chemical Industries, Ltd.) so that the concentration thereof became 5120 μg/ml. The resultant solution was diluted with DMSO or sterile distilled water so as to prepare two-fold dilution series of antibacterial agent solutions. […] Each of these antibacterial agent solutions was dispensed to wells of a 96-well plate. The concentration of the EGCG derivative in the antibacterial agent solution dispensed to the wells was set to be 10 times as high as the final concentration. On the other hand, the bacteria were cultured in the MH-broth at 37° C. overnight, and the thus-obtained pre-culture solution was diluted with a new MH-broth so that the concentration thereof in the MH-broth became 10^−4 (10^4-fold dilution), thus preparing a bacterial culture solution of about 1×10^5 CFU/ml (CFU: Colony Forming Unit, the number of viable cells). The bacterial culture solution was further added to each well, and the mixture was cultured at 37° C. for 18 hours. The ratio (volume ratio) between the antibacterial agent solution and the bacterial culture solution added to each well was set to 1:9 (the antibacterial agent solution:the bacterial culture solution), and the volume of the mixture of them per well was set to 100 μl in total. The final concentration of the EGCG derivative in the mixture was set to 8 μg/ml to 512 μg/ml, and the number of viable cells in the mixture was set to about 1×10^5 CFU/ml. Then, after the completion of the culture, the MIC was determined. Also, the turbidity (OD600 nm) was measured using a plate reader so as to identify minor differences.
(§3) Regarding the respective type strains shown in Tables 7 and 8 below, the MIC measurement was performed using the antibacterial agent solutions of Example 2 in the same manner as described in Section (2) of Example 1, except for the following. The antibacterial agent solutions were prepared by dissolving the EGCG derivatives of Example 2 in 100% DMSO and then diluting the resultant mixtures with sterile distilled water. The respective strains were derived from ATCC or NCTC. As Moraxella catarrhalis and Aspergillus fumigatus, clinical isolates thereof without an acquired resistance mechanism were used. For nutrient-rich bacteria, namely, Streptococcus pneumoniae ATCC49619, Streptococcus pyogenes ATCC19615, Streptococcus agalactiae ATCC13813, Moraxella catarrhalis, and Haemophilis influenzae ATCC49766, Strepto Haemo supplement (Eiken Chemical Co., Ltd.) was added to media for culturing them. The MIC measurement with respect to fungi was carried out by a broth microdilution method using a RPMI1640/MOPS (pH 7.0) medium in accordance with CLSI guidelines. About 2×10^3 cells/ml of fungi were inoculated to the medium. After the culture at 35° C. for 24 to 48 hours, the MIC was determined. Also, regarding the antibacterial agent solution of Comparative Example 2, the MIC was measured in the same manner.

The test system of assay [7] is Micrococcus lutus ATCC9341. In words: Antibacterial spectrum MIC (Table 7). The class given is cell-based. How it is done:
as §1, §2, §3

The subject of the next assay is Moraxella catarrhalis. The experiment in a line: Antibacterial spectrum MIC (Table 7). The class given is cell-based. Particulars: Moraxella catarrhalis clinical isolate, Strepto Haemo supplement. How it is done: as §1, §2, §3
The test system of assay [8] is Neisseria gonorrhoeae ATCC49226. The experiment in a line: Antibacterial spectrum MIC (Table 7). The class given is cell-based. How it is done: as §1, §2, §3
The test system of assay [9] is Klebsiella oxytoca ATCC8724. In words: Antibacterial spectrum MIC (Table 7). The class given is cell-based. How it is done:
as §1, §2, §3

The test system of assay [10] is Bacillus subtilus ATCC6051. The experiment in a line: Antibacterial spectrum MIC (Table 7). The class given is cell-based. How it is done: as §1, §2, §3
Assay [11] deals with Streptococcus pyogenes ATCC19615. In words: Antibacterial spectrum MIC (Table 7). To be noted: Strepto Haemo supplement. The class given is cell-based. How it is done: as §1, §2, §3
Assay [12] relates to Streptococcus pneumoniae ATCC49619. The experiment in a line: Antibacterial spectrum MIC (Table 7). The format is cell-based. Particulars: Strepto Haemo supplement. How it is done: as §1, §2, §3
Assay [13] deals with Enterobacter aerogenes ATCC13048. In words: Antibacterial spectrum MIC (Table 7). The format is cell-based. How it is done: as §1, §2, §3
The test system of assay [14] is Streptococcus agalactiae ATCC13813. The experiment in a line: Antibacterial spectrum MIC (Table 7). The class given is cell-based. Particulars: Strepto Haemo supplement. On the procedure: as §1, §2, §3
Assay [15] has as its system Bacillus cereus ATCC14579. In words: Antibacterial spectrum MIC (Table 7). The class given is cell-based. How it is done:
as §1, §2, §3

The subject of assay [16] is Serratia marcescens ATCC13880. The experiment in a line: Antibacterial spectrum MIC (Table 7). The class given is cell-based. On the procedure:
as §1, §2, §3

The subject of assay [17] is Stenotrophomonas maltophilia ATCC13637. In words: Antibacterial spectrum MIC (Table 7). The format is cell-based. On the procedure:
as §1, §2, §3

In assay [18] the test system is S. aureus NCTC8325 (MSSA). The experiment in a line: MIC, broth microdilution (Example 2, Table 6). The format is cell-based, Staphylococcus aureus. On the procedure:
as §1, §2
(§4) Each of the EGCG derivatives was dissolved in 100% DMSO so that the concentration thereof became 1280 μg/ml. The thus-obtained solutions were diluted with sterile distilled water, thus preparing antibacterial agent solutions.
(§5) As Comparative Example 2, the same procedures as in Example 2 were performed, except that unsubstituted EGCG was used as an antibacterial agent instead of the EGCG derivatives of Example 2. Furthermore, as a control, the same procedures as in Example 2 were performed, except that sterile distilled water was used instead of the antibacterial agent solutions containing the EGCG derivatives.

Another assay relates to MRSA ATCC43300. In words: MIC, broth microdilution (Example 2, Table 6). The class given is cell-based, Staphylococcus aureus. How it is done:
as §1, §2, §4, §5

Assay [19] deals with MRSA clinical isolate No. 7. The experiment in a line: MIC, broth microdilution (Example 2, Table 6). The format is cell-based, Staphylococcus aureus.
Assay [20] has as its system MSSA clinical isolate No. 4. The experiment in a line: MIC, broth microdilution (Example 2, Table 6). The class given is cell-based, Staphylococcus aureus.

A word on the MIC: it is the lowest concentration found to suppress growth.

Where only a bound is given, the exact number is not on record here.

For the substance EGCG-palmitoleate [EGCG-C16E], the MIC in [1] came to 64 µg/mL; in assay [2] it was 8 µg/mL; in assay [3], 16 µg/mL; in [4], 16 µg/mL; in the assay on MSSA ATCC25923, 32 µg/mL; in assay [5], 16 µg/mL. For the same substance, the MIC in assay [6] was determined as 64 µg/mL; in [7], 64 µg/mL; against Moraxella catarrhalis, 64 µg/mL; in [8], 16 µg/mL; in assay [9] it was 64 µg/mL; in [10] it was 16 µg/mL. Besides, the minimal inhibitory concentration (MIC) in assay [11] was 64 µg/mL; in assay [12], 16 µg/mL; in [13], 32 µg/mL; in [14] it was >64 µg/mL; in [15], 16 µg/mL; in [16], 64 µg/mL. For the same substance, the MIC in assay [17] came to 32 µg/mL; in [18], 16 µg/mL; in the assay on MRSA ATCC43300 it was 16 µg/mL; in assay [19], 16 µg/mL; in [20], 16 µg/mL.

On to EGCG-linolate [EGCG-C18DE], for which the MIC in assay [1] was 32 µg/mL; in assay [2], 8 µg/mL; in [3], 16 µg/mL; in assay [4], 32 µg/mL; against MSSA ATCC25923, 32 µg/mL; in [5], 16 µg/mL. Moreover, the MIC came out at 64 µg/mL in [6]; 64 µg/mL in assay [7]; 64 µg/mL against Moraxella catarrhalis; 16 µg/mL in [8]; 64 µg/mL in assay [9]; 32 µg/mL in [10]. Moreover, the MIC in [11] is 64 µg/mL; in assay [12], 16 µg/mL; in assay [13] it was 32 µg/mL; in [14], >64 µg/mL; in assay [15], 16 µg/mL; in assay [16], 64 µg/mL. In addition, the MIC turned out to be 32 µg/mL in assay [17]; 16 µg/mL in assay [18]; 16 µg/mL against MRSA ATCC43300; 16 µg/mL in [19]; 16 µg/mL in assay [20].

For the substance EGCG-palmitate [EGCG-C16], the minimum inhibitory concentration (MIC) in assay [1] turned out to be 32 µg/mL; in assay [2] it was 8 µg/mL; in assay [3] it was 16 µg/mL; in assay [4] it was 16 µg/mL; in the assay with MSSA ATCC25923, 16 µg/mL; in [5], 16 µg/mL. The MIC in assay [6] is 32 µg/mL; in [7] it was 64 µg/mL; with Moraxella catarrhalis, 64 µg/mL; in [8], 16 µg/mL; in [9], 64 µg/mL; in [10], 16 µg/mL. The MIC is 64 µg/mL in assay [11]; 16 µg/mL in [12]; 32 µg/mL in assay [13]; >64 µg/mL in assay [14]; 16 µg/mL in assay [15]; 64 µg/mL in [16]. The MIC in [17] is 32 µg/mL; in assay [18], 8 µg/mL; against MRSA ATCC43300, 16 µg/mL; in [19], 16 µg/mL; in assay [20], 16 µg/mL. Moreover, in [6] (Staphylococcus epidermids ATCC14990, comparison among EGCG derivatives), the antibacterial effect entry is given as “strongest antibacterial effect”.
